This is an account of results in article PMC11284790, “Targeting Myeloperoxidase Ameliorates Gouty Arthritis: A Virtual Screening Success Story” (Journal of Medicinal Chemistry, 2024).

The subject of assay [1] is human peripheral blood neutrophils. The experiment in a line: Cellular production of HOCl, PMA-activated peripheral blood neutrophils. Type of assay: cell-based. The settings on record: 20 μM compound, 100 nM PMA, 1 h. The protocol: Human neutrophils were obtained from healthy individuals as previously described.[24] The experiments were approved by the local ethics committee (CEPSH-ICB 1435/18).
Measurement of HOCl production by 1 × 10^6 dHL-60 or neutrophils was carried out in PBS (10 mM Na2HPO4, 2 mM KH2PO4, 0.5 mM MgCl2, 1 mM CaCl2, 140 mM NaCl, 5.5 mM dextrose, 100 μM diethylenetriaminepentaacetic acid, 5 mM taurine) in the presence of the compounds (20 μM in 0.3% DMSO) or 0.3% DMSO (control). Cells were activated with phorbol myristate acetate (100 nM) at 37 °C for 1 h. After incubation, cells were centrifuged at 1400 rpm for 10 min, and the supernatant was diluted threefold. Finally, 240 μL of this supernatant was added to 60 μL acetate buffer (400 mM, pH 5.4) containing NaI (100 μM) and TMB (2 mM in DMFO 10%). Taurine chloramine was quantified by TMB oxidation at 655 nm.[33] Inhibition of HOCl production was calculated as the percentage of the control (vehicle).

Assay [2] concerns the target T1, Human leukocyte MPO (Homo sapiens, UniProt P05164). The experiment in a line: MPO chlorinating activity assay (taurine chloramine/TMB). Type of assay: biochemical. On the set-up: Human leukocyte MPO (EC 1.7.1.11) was purchased from Planta Natural Products; purchased Planta Natural Products (Vienna, Austria); host or cells: human leukocytes. To be noted: for IC50: pH 7.4. On the procedure: Chlorinating activity was carried out in phosphate buffer (20 mM, pH 7.4). Compounds (20 μM) were dissolved in 0.03% DMSO, MPO (10 nM), diethylenetriaminepentaacetic acid (100 μM), cetyltrimethylammonium chloride (0.03%), NaCl (140 mM), and taurine (5 mM).[31] This mixture was incubated at 37 °C for 15 min before adding 40 μM hydrogen peroxide. The reaction ran for 8 min and was then stopped by catalase (20 μg/mL). Oxidation of TMB (2 mM) (3,3,5,5-tetramethylbenzidine) by taurine chloroamine catalyzed by iodide (100 μM) was quantified at 650 nm.[33] Results were expressed as a percentage of the control (vehicle). IC50 was calculated by nonlinear regression using the Hill equation present in GraphPad Prism 5 software.

Assay [3] deals with T1, Human leukocyte MPO. The experiment in a line: MPO peroxidatic activity assay (AmplexRed oxidation). Type of assay: biochemical. Further details: Human leukocyte MPO (EC 1.7.1.11) was purchased from Planta Natural Products; purchased Planta Natural Products (Vienna, Austria); host or cells: human leukocytes. The protocol:
MPO peroxidase activity was kinetically monitored using the artificial peroxidase substrate AmplexRed, which is oxidized to resorufin and can be detected by fluorescence.[34] Reactions were carried out in phosphate buffer (50 mM, pH 7.4), MPO (100 pM), cetyltrimethylammonium chloride (0.03%), diethylenetriaminepentaacetic acid (100 μM), AmplexRed (30 μM), and compounds (20 μM in 0.3% DMSO). The reaction was started by adding 2 μM hydrogen peroxide. The reaction product was assessed by fluorescence at λex = 530 and λem = 580 nm. The initial velocity was calculated by the slope of the linear regression in the first minutes of reaction. Inhibition is represented as a percentage of the control (vehicle).

In assay [4] the target is T1, Human leukocyte MPO. The experiment in a line: Oxidation of the compounds by MPO/H2O2 (intrinsic fluorescence decay). Further details: Human leukocyte MPO (EC 1.7.1.11) was purchased from Planta Natural Products; purchased Planta Natural Products (Vienna, Austria); host or cells: human leukocytes. The settings on record: 1 μM compound; for compound oxidation by MPO/H2O2 in the presence of chloride (fluorescence) / compound oxidation by MPO/H2O2 in the absence of chloride (fluorescence): 10 nM MPO; for compound oxidation by MPO/H2O2 in the presence of chloride (fluorescence): 40 μM H2O2, 140 mM NaCl; for compound oxidation by MPO/H2O2 in the absence of chloride (fluorescence): 40 μM H2O2, no chloride. Type of assay: biochemical. On the procedure:
Changes in the absorption and fluorescence spectra of RL6 and RL7 were determined by incubating 1 μM compounds in 0.3% DMSO and phosphate buffer (20 mM, pH 7.4) with or without MPO (10 nM), diethylenetriaminepentaacetic acid (100 μM), taurine (5 mM), cetyltrimethylammonium chloride (0.03%), and NaCl (140 mM). In the chloride-free system, NaCl and taurine were omitted, and cetyltrimethylammonium chloride was replaced by cetyltrimethylammonium bisulfate. The reaction was performed in the absence or presence of Tyr (50 μM) and was started by adding 40 μM hydrogen peroxide. RL6 and RL7 consumption was monitored by fluorescence at λex = 413/λem = 603 nm for RL6 or λex = 306/λem = 603 nm for RL7 in a microplate reader.

Where [5] appears, read: 20 μM compound, 10 nM MPO, 140 mM NaCl, 5 mM taurine, 40 μM H2O2, pH 7.4, read-out: % Inhibition (at 20 μM) Chlorinating.
Where [6] appears, read: supplementary csv copy of Table 1, read-out: % Inhibition (Chlorinating).

SMILES strings stand for the structures.

T1 sequence (P05164 279-745 limits assumed): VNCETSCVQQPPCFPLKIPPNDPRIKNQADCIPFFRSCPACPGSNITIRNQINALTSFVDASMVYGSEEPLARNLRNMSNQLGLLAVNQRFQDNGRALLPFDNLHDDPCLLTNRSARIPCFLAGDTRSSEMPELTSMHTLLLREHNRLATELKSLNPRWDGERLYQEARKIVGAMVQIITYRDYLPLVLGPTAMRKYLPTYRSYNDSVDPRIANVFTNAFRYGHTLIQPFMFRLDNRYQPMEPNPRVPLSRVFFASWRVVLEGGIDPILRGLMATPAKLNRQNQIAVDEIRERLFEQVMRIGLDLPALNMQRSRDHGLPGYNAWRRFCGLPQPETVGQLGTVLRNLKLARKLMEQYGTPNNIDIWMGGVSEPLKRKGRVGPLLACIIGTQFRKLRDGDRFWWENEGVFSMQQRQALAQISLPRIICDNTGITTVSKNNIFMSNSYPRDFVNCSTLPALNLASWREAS
T1 sequence (P05164 165-278 limits assumed): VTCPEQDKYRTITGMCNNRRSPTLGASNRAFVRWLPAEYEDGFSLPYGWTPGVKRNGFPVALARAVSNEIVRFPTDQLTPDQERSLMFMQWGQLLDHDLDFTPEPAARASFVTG

Regarding `CN1CCc2nc3sc(C(=O)Nc4cccc(C#N)c4)c(N)c3cc2C1` [RL7], the “inhibition of HOCl production in peripheral blood neutrophils” value in assay [1] is recorded as “significantly inhibited”. In addition, 560 nM corresponded to half-maximal inhibition in assay [2] (10 nM MPO, 140 mM NaCl) (IC50). Further, in assay [2] (20 μM compound, 10 nM MPO, 140 mM NaCl, 5 mM taurine, 40 μM H2O2, pH 7.4), the “% Inhibition (at 20 μM) Chlorinating” value is on record as “active against chlorinating activity only”. In addition, in assay [2] (setting [5]), the inhibition (in general, the percentage by which the read-out fell short of the control) at 20 µM was 84.9 ± 17%. The inhibition at 20 µM in assay [2] (setting [6]) is 84.9 ± 17%. Besides, in assay [3] (20 μM compound, 100 pM MPO, 30 μM AmplexRed, 2 μM H2O2, pH 7.4), the “% Inhibition (at 20 μM) Peroxidatic” value is “INACTIVE”. Besides, the “% Inhibition (Peroxidatic)” value in assay [3] (supplementary csv copy of Table 1) is “INACTIVE”. Besides, in assay [4], the “compound oxidation by MPO/H2O2 in the presence of chloride (fluorescence)” value was “further consumed in the full reaction system in the presence of chloride” and the “compound oxidation by MPO/H2O2 in the absence of chloride (fluorescence)” value is “not further enhanced by hydrogen peroxide/MPO”.
`Nc1cc2c3c(cccc3c1)C(=O)N(N)C2=O` [RL6]: in assay [1], the “inhibition of HOCl production in peripheral blood neutrophils” value is reported as “significantly inhibited”. In addition, half-maximal inhibition in assay [2] (10 nM MPO, 140 mM NaCl) (IC50) was put at 270 nM. For the same molecule, the inhibition at 20 µM amounted to 86.5 ± 15.3% in assay [2] (setting [5]); 86.5 ± 15.3% in assay [2] (setting [6]); 73 ± 13.4% in assay [3] (20 μM compound, 100 pM MPO, 30 μM AmplexRed, 2 μM H2O2, pH 7.4, read-out: % Inhibition (at 20 μM) Peroxidatic); 73 ± 13.4% in assay [3] (supplementary csv copy of Table 1, read-out: % Inhibition (Peroxidatic)). For the same molecule, the “chlorinating/peroxidatic activity inhibition ratio” value in assay [2] (ratio of % inhibition at 20 μM, ~1 indicates true enzyme inhibitor) is on record as around 1. In addition, the “compound oxidation by MPO/H2O2 in the presence of chloride (fluorescence)” value in assay [4] was “did not undergo any alteration”. The “compound oxidation by MPO/H2O2 in the absence of chloride (fluorescence)” value in assay [4] is listed as “did not undergo any alteration”. Besides, the “compound oxidation by MPO/H2O2 in the presence of tyrosine (fluorescence)” value in assay [4] (50 μM tyrosine) was “No oxidation occurred”.
